Source: paper PMC5840332, “Disease-associated missense mutations in GluN2B subunit alter NMDA receptor ligand binding and ion channel properties” (Nature Communications, 2018)
Values joined by “and” are separate entries in the source; they are usually repeats but may differ in a detail not shown here. Equal entries are not always repeated. Each block holds one molecule with its values, some of them ahead of it.

What was measured:
[1] = system: GluN1-GluN2A diheteromers; design: method as in PMID 22022974; conditions: cited from earlier work
[2] = system: NMDAR-mediated EPSCs, hippocampal neurons; assay: NMDAR-mediated EPSCs in cultured hippocampal neurons, pharmacological characterisation; type: cell-based, rat
Protocol: The impact of the GluN2B mutations was assessed on neuronal NMDARs by evoking network-driven NMDAR-mediated EPSCs in hippocampal neurons transfected with either wild-type or mutant GluN2B constructs. Hippocampal cultures were superfused with Krebs containing 10 μM CNQX and 20 μM bicuculline to block non-NMDA receptor and GABAA receptor-mediated currents, respectively. […] To obtain phase-locked EPSCs, a loose cell-attached patch electrode was used to serially stimulate presynaptic neurons yielding evoked EPSCs in postsynaptic neurons.
The relative contributions of GluN2A and GluN2B subunits to NMDAR-mediated currents (at 13–15 DIV) was assessed using the selective antagonists, TCN213 (30 μM, for GluN2A) and ifenprodil (3 μM, for GluN2B).
Dissected hippocampi were dissociated from E18 Sprague Dawley rat embryos using procedures and protocols that have been approved by the UK Home Office. They were dissociated into single cells using 0.1% w/v trypsin and serially triturated with flame-polished Pasteur pipettes. […] Neurons were transfected after 10 days in vitro (DIV) with either cDNAs for the GluN2B WT or mutants together with DsRed using Effectene (Qiagen) and recorded at 13–15 DIV.
(§1) Cells were voltage clamped at −60 mV.
NMDAR-mediated EPSCs were evoked by direct stimulation of single neighbouring neurons using a loose cell-attached patch electrode filled with Krebs and containing a bipolar stimulating electrode. […] For the pharmacological characterisation of NMDAR-mediated EPSCs, the selective antagonists ifenprodil (+)-hemitartrate (Santacruz biotechnology) and TCN213 (Tocris) were used.
EPSCs were analysed offline using WinWCP (Strathclyde Electrophysiology Software, UK). Peak EPSC amplitude, the area of the EPSC (charge transfer) and EPSC decays were measured. The decay time constants (τ) were determined by fitting the EPSC decays with a double exponential function. The weighted time constant (τw) was calculated using the following equation, where A indicates the relative area of each time constant.3 τw=((A1.τ1)+(A2.τ2))∕A1+A2.

GluN1–GluN2B^V618G [3] = target: T1, GluN1–GluN2B^V618G (Homo sapiens, UniProt Q05586+Q13224, V618G); assay: Ion permeability experiments in Mg2+ or Ca2+ solution, HEK293 cells; type: cell-based; design: expressed in transfected cells; host or cells: HEK293; conditions: −60 mV
T1 sequence (Q13224 27-1484 V618G, other chains not shown): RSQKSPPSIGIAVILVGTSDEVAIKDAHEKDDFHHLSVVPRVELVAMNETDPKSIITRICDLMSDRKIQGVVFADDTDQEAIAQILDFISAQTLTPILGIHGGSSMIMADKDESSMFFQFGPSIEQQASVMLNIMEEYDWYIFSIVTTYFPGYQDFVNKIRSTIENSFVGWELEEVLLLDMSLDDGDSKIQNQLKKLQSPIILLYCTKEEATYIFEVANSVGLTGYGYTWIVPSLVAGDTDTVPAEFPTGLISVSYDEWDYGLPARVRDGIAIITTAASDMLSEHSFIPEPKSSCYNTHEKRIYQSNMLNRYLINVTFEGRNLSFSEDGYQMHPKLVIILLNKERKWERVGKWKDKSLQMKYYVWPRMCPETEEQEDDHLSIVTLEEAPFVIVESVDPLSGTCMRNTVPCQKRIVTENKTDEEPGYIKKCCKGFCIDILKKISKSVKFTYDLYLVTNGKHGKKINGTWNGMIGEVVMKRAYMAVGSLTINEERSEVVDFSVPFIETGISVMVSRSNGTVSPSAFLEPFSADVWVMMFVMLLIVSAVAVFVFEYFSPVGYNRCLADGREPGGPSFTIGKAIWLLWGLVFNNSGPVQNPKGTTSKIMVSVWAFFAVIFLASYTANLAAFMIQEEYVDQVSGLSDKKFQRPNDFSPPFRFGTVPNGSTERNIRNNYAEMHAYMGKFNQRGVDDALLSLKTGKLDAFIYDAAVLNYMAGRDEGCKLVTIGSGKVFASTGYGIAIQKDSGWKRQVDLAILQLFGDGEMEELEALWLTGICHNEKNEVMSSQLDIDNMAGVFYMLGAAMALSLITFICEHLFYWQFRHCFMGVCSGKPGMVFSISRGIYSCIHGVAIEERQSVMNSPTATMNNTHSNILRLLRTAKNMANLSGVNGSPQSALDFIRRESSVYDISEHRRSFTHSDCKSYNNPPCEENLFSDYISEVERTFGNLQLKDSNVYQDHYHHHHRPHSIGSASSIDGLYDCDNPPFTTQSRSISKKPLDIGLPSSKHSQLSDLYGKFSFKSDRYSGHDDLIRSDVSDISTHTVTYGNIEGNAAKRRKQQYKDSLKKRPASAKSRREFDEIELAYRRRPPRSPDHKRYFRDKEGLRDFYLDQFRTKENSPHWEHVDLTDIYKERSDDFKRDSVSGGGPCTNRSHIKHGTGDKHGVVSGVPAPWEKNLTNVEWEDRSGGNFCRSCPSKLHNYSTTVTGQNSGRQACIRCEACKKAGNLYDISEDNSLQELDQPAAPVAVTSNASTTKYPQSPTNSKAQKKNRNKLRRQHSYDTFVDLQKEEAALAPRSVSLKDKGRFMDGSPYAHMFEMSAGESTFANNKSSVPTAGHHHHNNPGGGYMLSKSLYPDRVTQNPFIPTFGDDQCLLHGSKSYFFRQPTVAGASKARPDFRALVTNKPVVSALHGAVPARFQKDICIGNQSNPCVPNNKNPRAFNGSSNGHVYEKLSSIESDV
Description: (§2) To assess Mg^2+ permeability the external solution was altered such that Mg^2+ was the only current-carrying cation (Mg^2+ solution). […] The same result was apparent for GluN1–GluN2B^N615I (Fig. 4a; Table 1). […] To assess whether the channel mutants affected Ca^2+ permeation, we modified the external solution to make Ca^2+ the only current-carrying cation[24] (Ca^2+ solution). […] This implied a significant reduction in Ca^2+ permeation for GluN2B^N615I.
as §1

GluN1–GluN2B^N615I [4] = target: T2, GluN1–GluN2B^N615I (Homo sapiens, UniProt Q05586+Q13224, N615I); assay: as above; type: cell-based; design: expressed in transfected cells; host or cells: HEK293; conditions: −60 mV
T2 sequence (Q13224 27-1484 N615I, other chains not shown): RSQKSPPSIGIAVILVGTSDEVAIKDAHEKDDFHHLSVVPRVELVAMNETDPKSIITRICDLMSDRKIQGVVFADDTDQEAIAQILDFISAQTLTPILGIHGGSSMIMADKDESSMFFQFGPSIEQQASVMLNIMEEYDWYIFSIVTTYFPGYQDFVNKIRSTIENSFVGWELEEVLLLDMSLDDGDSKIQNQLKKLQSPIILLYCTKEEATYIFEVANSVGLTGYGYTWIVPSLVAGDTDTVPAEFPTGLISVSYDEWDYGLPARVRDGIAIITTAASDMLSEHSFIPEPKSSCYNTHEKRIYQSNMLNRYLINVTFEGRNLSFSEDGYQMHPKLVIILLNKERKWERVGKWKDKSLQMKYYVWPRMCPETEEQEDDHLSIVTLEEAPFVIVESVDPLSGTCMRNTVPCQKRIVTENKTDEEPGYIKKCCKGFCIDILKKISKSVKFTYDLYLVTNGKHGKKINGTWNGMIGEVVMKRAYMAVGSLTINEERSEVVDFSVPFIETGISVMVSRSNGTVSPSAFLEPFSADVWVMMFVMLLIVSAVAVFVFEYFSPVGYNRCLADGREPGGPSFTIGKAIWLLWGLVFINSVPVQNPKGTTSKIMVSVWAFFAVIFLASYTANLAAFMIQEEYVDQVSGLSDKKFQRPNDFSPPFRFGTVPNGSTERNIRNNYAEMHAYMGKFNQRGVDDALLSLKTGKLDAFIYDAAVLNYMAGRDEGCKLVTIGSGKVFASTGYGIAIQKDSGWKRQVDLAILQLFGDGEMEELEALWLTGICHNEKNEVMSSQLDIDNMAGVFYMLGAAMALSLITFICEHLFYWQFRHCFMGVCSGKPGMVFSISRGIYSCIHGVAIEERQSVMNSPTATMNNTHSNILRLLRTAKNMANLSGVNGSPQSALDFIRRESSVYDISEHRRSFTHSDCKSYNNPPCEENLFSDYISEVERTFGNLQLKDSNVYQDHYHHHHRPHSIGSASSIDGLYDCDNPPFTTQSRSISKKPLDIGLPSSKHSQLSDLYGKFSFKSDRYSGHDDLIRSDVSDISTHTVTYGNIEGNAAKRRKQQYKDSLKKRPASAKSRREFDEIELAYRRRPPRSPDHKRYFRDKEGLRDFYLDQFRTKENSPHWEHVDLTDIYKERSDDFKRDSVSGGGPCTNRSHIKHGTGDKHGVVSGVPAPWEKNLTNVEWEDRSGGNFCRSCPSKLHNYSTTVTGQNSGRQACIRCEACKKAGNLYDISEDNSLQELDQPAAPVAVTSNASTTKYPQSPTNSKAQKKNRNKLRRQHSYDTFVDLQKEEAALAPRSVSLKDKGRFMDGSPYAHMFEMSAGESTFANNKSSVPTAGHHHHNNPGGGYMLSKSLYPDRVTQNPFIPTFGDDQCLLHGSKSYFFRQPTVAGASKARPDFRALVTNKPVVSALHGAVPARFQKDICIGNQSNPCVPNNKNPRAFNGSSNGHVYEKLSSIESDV
Description: as §2, §1

GluN1–GluN2B^WT [5] = target: T3, GluN1–GluN2B^WT (Homo sapiens, UniProt Q05586+Q13224); assay: as above; type: cell-based; design: expressed in transfected cells; host or cells: HEK293; conditions: −60 mV
T3 sequence (Q13224 27-1484, other chains not shown): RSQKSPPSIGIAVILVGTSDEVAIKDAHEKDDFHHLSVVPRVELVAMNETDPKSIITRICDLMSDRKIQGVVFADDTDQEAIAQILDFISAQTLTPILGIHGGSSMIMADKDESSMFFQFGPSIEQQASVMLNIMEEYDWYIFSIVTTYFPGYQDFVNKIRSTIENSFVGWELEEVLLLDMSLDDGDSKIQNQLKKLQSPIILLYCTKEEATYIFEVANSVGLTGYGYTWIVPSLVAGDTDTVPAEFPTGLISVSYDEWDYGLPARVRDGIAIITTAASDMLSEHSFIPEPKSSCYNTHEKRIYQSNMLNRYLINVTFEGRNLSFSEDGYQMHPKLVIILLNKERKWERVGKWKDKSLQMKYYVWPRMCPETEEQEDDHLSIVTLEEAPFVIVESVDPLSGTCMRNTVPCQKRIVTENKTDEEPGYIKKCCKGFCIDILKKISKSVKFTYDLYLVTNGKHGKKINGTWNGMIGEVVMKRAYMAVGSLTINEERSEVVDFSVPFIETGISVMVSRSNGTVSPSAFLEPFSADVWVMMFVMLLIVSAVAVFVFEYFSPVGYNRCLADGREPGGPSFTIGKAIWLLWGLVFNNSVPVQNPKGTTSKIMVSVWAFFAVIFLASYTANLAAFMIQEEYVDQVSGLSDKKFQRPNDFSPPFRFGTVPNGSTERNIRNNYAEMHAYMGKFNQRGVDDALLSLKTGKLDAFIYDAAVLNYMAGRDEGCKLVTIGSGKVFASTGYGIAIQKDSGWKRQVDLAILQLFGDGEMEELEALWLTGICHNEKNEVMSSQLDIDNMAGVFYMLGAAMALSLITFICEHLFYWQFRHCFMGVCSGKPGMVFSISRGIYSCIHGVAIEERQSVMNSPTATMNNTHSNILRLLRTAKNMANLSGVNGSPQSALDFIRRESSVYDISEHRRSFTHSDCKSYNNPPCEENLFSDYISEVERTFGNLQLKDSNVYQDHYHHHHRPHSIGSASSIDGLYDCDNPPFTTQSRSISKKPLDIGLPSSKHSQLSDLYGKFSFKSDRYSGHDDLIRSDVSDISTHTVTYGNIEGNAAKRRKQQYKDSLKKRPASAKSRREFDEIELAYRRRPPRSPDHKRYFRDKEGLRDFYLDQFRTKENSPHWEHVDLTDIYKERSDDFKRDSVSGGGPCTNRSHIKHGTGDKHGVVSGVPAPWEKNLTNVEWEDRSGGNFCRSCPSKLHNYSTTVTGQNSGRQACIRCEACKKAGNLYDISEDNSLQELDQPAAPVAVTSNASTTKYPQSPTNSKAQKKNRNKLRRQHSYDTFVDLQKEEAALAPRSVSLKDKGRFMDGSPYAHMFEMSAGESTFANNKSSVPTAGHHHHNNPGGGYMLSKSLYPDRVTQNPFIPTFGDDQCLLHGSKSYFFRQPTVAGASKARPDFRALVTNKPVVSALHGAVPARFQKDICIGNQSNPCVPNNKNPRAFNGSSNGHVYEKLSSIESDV
Description: as §2, §1

GluN1–GluN2B^N615I [6] = target: T2, GluN1–GluN2B^N615I; assay: Mg2+ block of glutamate currents in HEK293 cells (concentration–inhibition, I–V, permeation model); type: cell-based; design: expressed in transfected cells; host or cells: HEK293; conditions: 1 μM–10 mM Mg^2+, −60 mV
GluN1–GluN2B^WT [7] = target: T3, GluN1–GluN2B^WT; assay: Mg2+ block of glutamate currents in HEK293 cells (concentration–inhibition, I–V, trapping model); type: cell-based; design: expressed in transfected cells; host or cells: HEK293
GluN1–GluN2B^V618G [8] = target: T1, GluN1–GluN2B^V618G; assay: Mg2+ block of glutamate currents in HEK293 cells (concentration–inhibition, I–V, permeation model); type: cell-based; design: expressed in transfected cells; host or cells: HEK293; conditions: −60 mV; for Effect of external Mg^2+ on glutamate current (Mg2+ block): 1 μM–10 mM Mg^2+
[9] = 30 μM TCN213, 13–15 DIV untransfected neurons
[10] = Mg^2+ solution (100 mM), 10 μM glutamate and 10 μM glycine
[11] = current in Mg^2+ solution as % of current in Krebs

SMILES: O=C(CSc1nnc(NCc2ccccc2)s1)NCC1CCCCC1 [TCN213]
IC50 [1]: ~30 µM
Prolongation of EPSC decay [2, 9]: 40%
Reduction of peak EPSC amplitude [2, 9]: 10%

SMILES: N[C@@H](CCCP(=O)(O)O)C(=O)O [APV]
Effect on spontaneous/evoked EPSCs ([2]; 20 μM APV, 0 Mg^2+, 10 μM CNQX, 20 μM bicuculline): blocked

IMg current density (GluN1–GluN2B^V618G [3]; [10]): −10.28 ± 2.53 pA/pF
IMg current density (GluN1–GluN2B^N615I [4]; [10]): −0.09 ± 0.03 pA/pF
IMg current density (GluN1–GluN2B^WT [5]; [10]): −0.07 ± 0.03 pA/pF
Effect of external Mg^2+ on glutamate current (Mg2+ block) (GluN1–GluN2B^N615I [6]): unaffected by external Mg^2+
Effect of external Mg^2+ on glutamate current (Mg2+ block) (GluN1–GluN2B^N615I [6]; listed as Mg2+): insensitive to Mg2+
k-bi (0mV), Mg2+ unbinding rate constant to inside (GluN1–GluN2B^WT [7]; predicted rate constant, 0 mV): 25124 s⁻¹
k-bo (0mV), Mg2+ unbinding rate constant to outside (GluN1–GluN2B^WT [7]; predicted rate constant, 0 mV): 24686 s⁻¹
Kd (GluN1–GluN2B^WT [7]; read-out: Dissociation constant for Mg^2+ binding at −60 mV, trapping block model, −60 mV): 123 µM
IC50 (GluN1–GluN2B^WT [7]; read-out: Mg^2+ IC50 (−60 mV), 10 μM glutamate and 10 μM glycine, −60 mV): 142 µM
δMg, fraction of membrane potential sensed by Mg^2+ (GluN1–GluN2B^WT [7]; trapping block model fit): 0.88 ± 0.04
Effect of external Mg^2+ on glutamate current (Mg2+ block) (GluN1–GluN2B^V618G [8]): unaffected by external Mg^2+
Effect of external Mg^2+ on glutamate current (Mg2+ block) (GluN1–GluN2B^V618G [8]; listed as Mg2+): insensitive to Mg2+
Change in current at high Mg^2+ concentrations (GluN1–GluN2B^V618G [8]; 3–10 mM Mg^2+): small increase in current
SMILES: [Mg+2] [Mg^2+]
IMg/IKrebs (GluN1–GluN2B^V618G [3]; [11]): 58.4 ± 9.8% and 58.46 ± 9.8 %
IMg/IKrebs (GluN1–GluN2B^N615I [4]; [11]): 1.63 ± 0.64%
IMg/IKrebs (GluN1–GluN2B^WT [5]; [11]): 0.91 ± 0.37%
